Results on one molecule are retold here after patent US20220387457A1 (Qlaris Bio, Inc., priority 2020, published 2022).

For one data set, the system named is beagles. Briefly: Toxicity and clinical signs after escalating intravenous doses of CKLP1 in beagles. In kind it is in vivo, beagle dog. The note with it: for dose with red discoloration of the skin: IV. How it is done:
Two beagles (one male and one female) were intravenously injected with escalating doses of CKPL1 (0.05 mg/kg, 0.5 mg/kg, 1.5 mg/kg, 3 mg/kg, and 5 mg/kg) to assess the toxicity of CKLP1. The injection was done through the cephalic vein and CKLP1 was administered in a phosphate buffered saline solution ((0.096% sodium phosphate dibasic, 0.089% sodium dihydrogen orthophosphate monohydrate, 0.83% sodium chloride) pH 6.5±0.1 in sterile water for injection USP). The dosing schedule is shown below in Table 3.
The following parameters and endpoints were evaluated: mortality, clinical observations, body and organ weights, and food consumption. Bioanalytical samples for toxicokinetic parameters (for both CKLP1 and leveromakalim) were collected after each dose level (days 1, 3, 8, 10, and 14) at predose, 1, 3, 6, 8, and 24 hours postdose. Animals were released from the study after completion of the bioanalytical sample collection schedule.

For data set [1], the system named is hound dogs (systemic blood pressure). Briefly: Systemic blood pressure in hound dogs during 61-day topical CKLP1. Type of data set: in vivo, hound dog. The note with it: 10 mM CKLP1 topical once daily. As to the method:
To evaluate the effect of IOP lowering long-term, hound dogs (n=5) were treated with 10 mM CKLP1 in one eye and vehicle (PBS) in the contralateral eye once daily for 61 consecutive days. […] On average, IOP was reduced by 18.9±1.3% (reduction of 3.0±0.5 mmHg; p<0.001) in all five hound dogs over the entire treatment period. Additionally, no significant change in systolic (baseline, 141.0±6.7; treatment, 138.9±9.5; p=0.56) or diastolic (baseline, 80.1±8.9; treatment, 78.1±5.9; p=0.76) blood pressure was observed during the treatment period (FIG. 7B). Hound dogs were also evaluated for eye redness, swelling of the eye or eyelids, unusual discharge from eye and overall food intake.
For the extended dose study, baseline IOPs were measured three times daily for 5 consecutive days. The average of the three measurements was recorded as the daily IOP and averaged over the 5 days for the final pre-treatment value. Following baseline IOP measurements, dogs (n=5) were treated with 10 mM CKLP1 in one eye, while the contralateral eye received vehicle (PBS). IOP was measured at least three times every week at times corresponding to 1, 4, and 23 hours post treatment. Blood pressure was measured three times each week at the 4 hour post treatment time point.

Data set [2] is described as follows: In vitro conversion of CKLP1 to levcromakalim in human ocular tissues and fluids. In kind it is in vitro ADME. The following applies: 10 μM CKLP1, 37° C. As to the method:
Aqueous humor was collected from each eye and combined in a single 1.5-mL tube. The eyes were then bisected at the equator, and vitreous humor was collected from both eyes, combined, and placed in a 15-mL conical tube and centrifuged at 1500 rpm for 10 minutes. Following centrifugation, the upper supernatant phase (less viscous region) was isolated and placed in a 1.5-mL tube. Tubes containing aqueous and vitreous humor were stored on ice. The following tissues were dissected from the eyes: cornea, retina, optic nerve, sclera, iris, ciliary body, and trabecular meshwork. The tissue samples were placed in 1.5-mL tubes containing approximately 200 μL of 50 mM Tris buffer pH 7.1. Each sample, except for the optic nerve sample, contained tissue from both eyes. Samples were stored on ice. Tissues were independently homogenized with a Polytron PT 1200 (setting 8) and placed on ice. The trabecular meshwork was lysed using a small pestle. In between samples, the homogenizer was cleaned and washed thoroughly with a minimum of 200 mL of distilled water.
Remaining tissue and debris were pelleted in an Eppendorf 5415C centrifuge at 13,000 rpm for 2 minutes. Supernatants were isolated and placed in clean 1.5-mL tubes. A Bradford protein assay was performed with 5 μL of supernatant of each sample. At the completion of the assay, 200-μL aliquots of each sample were placed in a 96-well plate, and protein concentrations were read using a TECAN Infinite® M200 plate reader at 595 nm. The final concentrations for all samples was 150 μg of protein in a solution of 10 μM CKLP1, except for vitreous humor, which only contained 100 μg of protein in 10 μM CKLP1 due to low protein concentration. There were 18 samples in total. Samples were mixed, briefly centrifuged and then, for each sample, a 100-μL portion was removed and placed in a new tube so that both tubes contained 100 μL (75 μg of protein each except vitreous humor, which contained 50 μg each). All pairs of samples were placed in incubation at 37° C. For each pair of tubes, one tube was incubated for 4 hours and one tube for 24 hours. At the completion of the incubation period, 200 μL of acetonitrile was added to each tube and mixed. Tubes were briefly centrifuged and placed at −80° C.

The next data set relates to mice (IOP). The note with it: previously reported; cited from earlier work.

Some results are limits rather than exact numbers.

As for `CC1(C)Oc2ccc(C#N)cc2[C@@H](N2CCCC2=O)[C@@H]1OP(=O)(O)O` [CKLP1], the adverse clinical signs entry with beagles (IV 5 mg/kg) is recorded as “increased heart rate, warm to touch, and/or partly closed eyes”. The “Clinical Signs” value in the data set on beagles (IV CKLP1 0.5 mg/kg) is “red discoloration of the skin (pinnae, gums, generalized”; in the data set with beagles (IV CKLP1 1.5 mg/kg), “red discoloration of the skin (pinnae, gums, generalized”; in the data set with beagles (IV CKLP1 3 mg/kg) it was “red discoloration of the skin (pinnae, gums, generalized”; in the data set with beagles (IV CKLP1 5 mg/kg), “red discoloration of the skin (pinnae, gums, generalized”. Moreover, the histological examination result in the data set on beagles (escalating IV doses) is listed as “no systemic toxicity”. In the data set with beagles (escalating IV doses 0.05-5 mg/kg), the “mortality, body weight, food consumption” value was “No mortality, change in body weight or food consumption”. The entries for the “dose with red discoloration of the skin” value with beagles (female dog) and with beagles (male dog) were not below 0.5 mg/kg and not below 0.05 mg/kg, respectively. Also, the peripheral vasodilation result in the data set on beagles (following intravenous administration in dogs) was “induces peripheral vasodilation”. The “diastolic blood pressure during treatment” value in data set [1] (baseline 80.1±8.9, p=0.76) was determined as 78.1±5.9 mmHg. Besides, in data set [1] (baseline 141.0±6.7, p=0.56), the “systolic blood pressure during treatment” value is reported as 138.9±9.5 mmHg. Besides, the “conversion of CKLP1 to levcromakalim over 24 hours” value in data set [2] (human aqueous humor) is “not”; in data set [2] (human ciliary body) it was 2.6%; in data set [2] (human cornea), 0.8%; in data set [2] (human iris), 3.9%; in data set [2] (human optic nerve), 0.9%; in data set [2] (human retina) it was 0.7%. In addition, the entries for the “conversion of CKLP1 to levcromakalim over 24 hours” value in data set [2] (human sclera), in data set [2] (human trabecular meshwork) and in data set [2] (human vitreous humor) were 1.6%, 1.6% and “not”, respectively. The “IOP lowered by” value in the data set on mice (IOP) is “approximately 17%”.
